Key:
[1] = (§1) The drug is tested on Z-026 corresponding to metagenome with ENA study accession number: PRJEB37062 and ENA sample accession number: ERS12561825 for biotransformation under anaerobic condition. The drug concentrations were measured over 9 timepoints collected between 0 and 24 hours of incubation by liquid-chromatography-coupled mass spectrometry (LC–MS); conditions: 2 µM
[2] = human gut metagenome, 24 h, 2 µM
[3] = human gut metagenome, 24 h, 2 µM; remark: listed apart in the source
[4] = (§2) The drug is tested on WLS-006 corresponding to human gut metagenome with ENA study accession number: PRJEB37062 and ENA sample accession number: ERS12561741 for biotransformation under anaerobic condition. The drug concentrations were measured over 9 timepoints collected between 0 and 24 hours of incubation by liquid-chromatography-coupled mass spectrometry (LC–MS); conditions: 2 µM
[5] = human gut metagenome, 24 h, 2 µM; remark: listed apart in the source
[6] = as §1, with “Z-021” for “Z-026”, “ERS12561820” for “ERS12561825”; conditions: 2 µM
[7] = as §1, with “Z-027” for “Z-026”, “ERS12561826” for “ERS12561825”; conditions: 2 µM
[8] = human gut metagenome, 24 h, 2 µM; remark: listed apart in the source
[9] = human gut metagenome, 24 h, 2 µM; remark: listed apart in the source
[10] = as §2, with “Z-014” for “WLS-006”, “rat” for “human”, “ERS12561814” for “ERS12561741”; conditions: 2 µM
[11] = as §2, with “WLS-086” for “WLS-006”, “ERS12561752” for “ERS12561741”; conditions: 2 µM
[12] = as §2, with “WLS-007” for “WLS-006”, “ERS12561742” for “ERS12561741”; conditions: 2 µM
[13] = as §2, with “WLS-220” for “WLS-006”, “ERS12561769” for “ERS12561741”; conditions: 2 µM
[14] = human gut metagenome, 24 h, 2 µM; remark: listed apart in the source
[15] = as §2, with “Z-025” for “WLS-006”, “rabbit” for “human”, “ERS12561824” for “ERS12561741”; conditions: 2 µM
[16] = human gut metagenome, 24 h, 2 µM; remark: listed apart in the source
[17] = as §2, with “WLS-027” for “WLS-006”, “ERS12561744” for “ERS12561741”; conditions: 2 µM
[18] = as §2, with “Z-030” for “WLS-006”, “mouse” for “human”, “ERS12561829” for “ERS12561741”; conditions: 2 µM
[19] = as §2, with “WLS-310” for “WLS-006”, “ERS12561785” for “ERS12561741”; conditions: 2 µM
[20] = human gut metagenome, 24 h, 2 µM; remark: listed apart in the source
Further: call rule not given here.

Structure (SMILES)	Bacterial Biotransformation [1]	Bacterial Biotransformation [2]	Bacterial Biotransformation [3]	Bacterial Biotransformation [4]	Bacterial Biotransformation [5]	Bacterial Biotransformation [6]	Bacterial Biotransformation [7]	Bacterial Biotransformation [8]	Bacterial Biotransformation [9]	Bacterial Biotransformation [10]	Bacterial Biotransformation [11]	Bacterial Biotransformation [12]	Bacterial Biotransformation [13]	Bacterial Biotransformation [14]	Bacterial Biotransformation [15]	Bacterial Biotransformation [16]	Bacterial Biotransformation [17]	Bacterial Biotransformation [18]	Bacterial Biotransformation [19]	Bacterial Biotransformation [20]
COc1ccc(Cc2nccc3cc(OC)c(OC)cc23)cc1OC [PAPAVERINE]	Compound NOT metabolized	Compound metabolized	Compound metabolized	Compound NOT metabolized	Compound metabolized	Compound metabolized	Compound NOT metabolized	Compound metabolized	Compound metabolized	Compound NOT metabolized	Compound metabolized	Compound metabolized	Compound metabolized	Compound metabolized	Compound metabolized	Compound metabolized	Compound metabolized	Compound NOT metabolized	Compound metabolized	Compound metabolized
CC(=O)CCCCn1c(=O)c2c(ncn2C)n(C)c1=O [PENTOXIFYLLINE]	Compound NOT metabolized	Compound metabolized	Compound metabolized	Compound NOT metabolized	Compound metabolized	Compound NOT metabolized	Compound NOT metabolized	Compound NOT metabolized	Compound NOT metabolized	Compound NOT metabolized	Compound metabolized	Compound NOT metabolized	Compound NOT metabolized	Compound NOT metabolized	Compound NOT metabolized	Compound metabolized	Compound NOT metabolized	Compound NOT metabolized	Compound NOT metabolized	Compound NOT metabolized
CCCN1C[C@H](CSC)C[C@@H]2c3cccc4[nH]cc(c34)C[C@H]21.CS(=O)(=O)O [PERGOLIDE MESYLATE]	Compound NOT metabolized	Compound NOT metabolized	Compound NOT metabolized	Compound NOT metabolized	Compound NOT metabolized	Compound metabolized	Compound NOT metabolized	Compound NOT metabolized	Compound NOT metabolized	Compound NOT metabolized	Compound metabolized	Compound NOT metabolized	Compound NOT metabolized	Compound NOT metabolized	Compound metabolized	Compound NOT metabolized	Compound NOT metabolized	Compound NOT metabolized	Compound NOT metabolized	Compound NOT metabolized
CC(C)(C)N.CCC[C@H](N[C@@H](C)C(=O)N1[C@H](C(=O)O)C[C@@H]2CCCC[C@@H]21)C(=O)OCC [PERINDOPRIL ERBUMINE]	Compound NOT metabolized	Compound metabolized	Compound metabolized	Compound metabolized	Compound metabolized	Compound NOT metabolized	Compound NOT metabolized	Compound metabolized	Compound metabolized	Compound NOT metabolized	Compound metabolized	Compound metabolized	Compound metabolized	Compound metabolized	Compound NOT metabolized	Compound metabolized	Compound metabolized	Compound NOT metabolized	Compound metabolized	Compound metabolized
C=C[C@H]1CN2CC[C@H]1C[C@H]2[C@H](O)c1ccnc2ccc(OC)cc12.C=C[C@H]1CN2CC[C@H]1C[C@H]2[C@H](O)c1ccnc2ccc(OC)cc12.O.O.O=S(=O)(O)O [QUININE SULFATE]	Compound NOT metabolized	Compound NOT metabolized	Compound metabolized	Compound metabolized	Compound metabolized	Compound NOT metabolized	Compound NOT metabolized	Compound NOT metabolized	Compound metabolized	Compound NOT metabolized	Compound metabolized	Compound NOT metabolized	Compound metabolized	Compound NOT metabolized	Compound NOT metabolized	Compound NOT metabolized	Compound NOT metabolized	Compound NOT metabolized	Compound metabolized	Compound metabolized
O=C(NC(Cc1cc(=O)[nH]c2ccccc12)C(=O)O)c1ccc(Cl)cc1 (stereo not given) [REBAMIPIDE]	Compound NOT metabolized	Compound NOT metabolized	Compound NOT metabolized	Compound NOT metabolized	Compound NOT metabolized	Compound metabolized	Compound NOT metabolized	Compound NOT metabolized	Compound NOT metabolized	Compound NOT metabolized	Compound metabolized	Compound NOT metabolized	Compound NOT metabolized	Compound metabolized	Compound NOT metabolized	Compound NOT metabolized	Compound NOT metabolized	Compound NOT metabolized	Compound NOT metabolized	Compound NOT metabolized
CCOc1cc(CC(=O)N[C@@H](CC(C)C)c2ccccc2N2CCCCC2)ccc1C(=O)O [REPAGLINIDE]	Compound NOT metabolized	Compound metabolized	Compound metabolized	Compound metabolized	Compound metabolized	Compound metabolized	Compound metabolized	Compound metabolized	Compound metabolized	Compound NOT metabolized	Compound metabolized	Compound metabolized	Compound metabolized	Compound metabolized	Compound NOT metabolized	Compound metabolized	Compound metabolized	Compound NOT metabolized	Compound metabolized	Compound metabolized
CC(N)C12CC3CC(CC(C3)C1)C2 (stereo not given) [RIMANTADINE]	Compound NOT metabolized	Compound NOT metabolized	Compound NOT metabolized	Compound NOT metabolized	Compound NOT metabolized	Compound NOT metabolized	Compound NOT metabolized	Compound NOT metabolized	Compound NOT metabolized	Compound NOT metabolized	Compound NOT metabolized	Compound NOT metabolized	Compound NOT metabolized	Compound NOT metabolized	Compound NOT metabolized	Compound NOT metabolized	Compound NOT metabolized	Compound NOT metabolized	Compound NOT metabolized	Compound NOT metabolized

Source: ChEMBL document CHEMBL5724914, “Linking interpersonal differences in gut microbiota composition and drug biotransformation activity” (2024)
